# According to patent publication US20080176787A1, “Parathyroid hormone analogues and methods of use” (priority 2005, published 2008):
# Positions of bridges follow the written chain, without caps; N, C: chain ends. Residues, ends and D or L forms follow the SMILES beside them.
# Experiments:
# [1] = test system: post-menopausal women with low bone mineral density; assay: Dose/weight cutoff subgroup analysis and modeling of Phase II 30 and 45 μg cohorts; format: in vivo, human; parameters: Mean LS-BMD / FN-BMD / TH-BMD / P1NP / CTx: unit not given here
# Procedure: The effect of the dose optimization strategy was evaluated by performing subgroup analyses using actual data from the 30 and 45 μg cohorts of the study (i.e. creation of a new subgroup by combining all patients below the weight cutoff from the 30 μg dose group with all patients above the weight cutoff from the 45 μg dose group, shown in the table below).
# A variety of new subgroups were created out of the patients who participated in the Phase II clinical trial. The groups from Phase II are shown above, where each group received a single dose, either 7.5 μg, 15 μg, 30 μg, 45 μg, or placebo. The 30 μg and 45 μg dose groups were re-grouped, according to the weight of the patient, and over 100 new sub-groups were created. This approach of creating new sub-groups out of dosages which are relatively close to each other, is a novel way of conducting Phase II studies.
# For the 105 patients who were originally given 30 or 45 μg, new groups were created by utilizing multiple weight cut-offs in increments of 0.5 kg. For example, one new group had the weight cut-off at 59 kg, meaning that every patient from the original low dose (30 μg) group who weighed less than 59 kg and every patient who weighed more than 59 kg from the original high dose (45 μg) group formed a new cohort. This new cohort represents a dose/weight cut-off of 59 kg, a group in which patients weighing less than 59 kg receive the low dose (30 μg) and patients weighing more than 59 kg receive the high dose (45 μg). Another example can be illustrated using a weight cutoff of 68 kg. Such a group would include all those patients who weigh less than 68 kg and who originally received the low dose (30 μg) as well as all those patients who weigh more than 68 kg and who originally received the high dose (45 μg). By using this method, over 100 separate cohorts were created by altering the dose/weight cut-off in increments of 0.5 kg. A summary of the data generated by these new dose/weight cut-off cohorts, using 68 kg and 59 kg as the dose/weight cut-off, is shown in the table below.
# The table above illustrates the actual clinical profile obtained for two dose/weight cutoffs (59 kg which produces a higher exposure profile since more patients receive the higher dose and 68 kg in which more patients receive the lower dose). […] One problem with simple subgroup analysis is that endpoints with a small number of events can skew the observed profile because of large changes in incidence when one of these events moves from one side of the weight cutoff to the other. Therefore, the dose/weight cutoff methodology was applied systematically to the data from the 30 and 45 μg dose groups starting at the lowest weight patient in the study (corresponds to the 45 μg profile because everyone receives the high dose) and increasing the cutoff by 0.5 kg increments through 100 kg (corresponding to the 30 μg profile because everyone receives the low dose). The multiple cutoff profiles thus obtained when graphed can then smooth out the effect of individual events as illustrated for the effect on hypercalcemia. The effect of weight cutoff on clinical profile can then be modeled to eliminate the skewing effects of individual data points as illustrated in FIG. 37-40. This approach has been applied to primary and secondary endpoints in the study.
# An important benefit of this modeling is that it is possible to project a clinical profile for a specific weight cutoff/dose exposure window with a high degree of accuracy since the effect of individual events is eliminated. The anticipated hypercalcemia and lumbar spine BMD profile for a 68 kg cutoff is illustrated in the table below, which compares the modeled hypercalcemia and lumbar spine BMD changes and the actual Phase II data for the 68 kg weight cutoff. It will also be possible to model the effects of even narrower exposure windows by using multiple dose cutoffs and different doses.
# [2] = test system: post-menopausal women with low bone mineral density; assay: Phase II clinical study of subcutaneous Ostabolin-C in post-menopausal women with low BMD (BMD, bone markers, serum calcium, side effects)
# Excerpt: A four month Phase II clinical study was undertaken to investigate the safety, tolerability and efficacy of Ostabolin-C™ in post-menopausal women with low bone mineral density (BMD). […] The clinical protocol is a 16-week phase II randomized, double-blind, placebo-controlled, parallel group, dose finding study to investigate the safety, tolerability and efficacy of Ostabolin-C™ in post-menopausal women with low bone mineral density (BMD). In this study, 261 patients underwent four months of daily dosing of placebo and four active groups. The active groups included daily administration of Ostabolin-C™ in doses of 7.5, 15, 30, and 45 μg. Ostabolin-C™ is formulated as a clear, colorless liquid provided in pre-filled syringes and injected subcutaneously (SC). Subjects self-administer SC 0.1 mL injections of their assigned dose of Ostabolin-C™ 7.5, 15, 30, and 45 μg or placebo daily for 16 weeks in rotating quadrants of the abdomen. The subjects were post-menopausal women (for at least 5 years) with moderate osteoporosis.
# The key endpoints for the study include change in mean BMD at the lumbar spine, as assessed by dual energy x-ray absorptiometry (DEXA), and measured by change from the Baseline visit. The Baseline visit is the first visit of the patient, before undergoing any treatment. Secondary efficacy endpoints include the following, as measured by change from Baseline visit:
# DEXA: Bone formation and resorption markers: • Mean femoral neck BMD • Serum osteocalcin • Mean trochanter BMD • Serum amino terminal pro-peptide of type 1 pro-collagen (P1NP) • Mean total hip BMD • Mean radial BMD (distal and midshaft) • Bone specific alkaline phosphatase (BSAP) • Bone mineral content (BMC) • Serum C-telopeptide (CTx) • Bone area • Serum N-telopeptide (NTx)
# [3] = test system: gonad-intact cynomolgus monkeys; assay: 52-week (12 months) daily subcutaneous study in gonad-intact young cynomolgus monkeys: bone mass, histomorphometry, % cortical porosity; format: in vivo
# Procedure: The peptide [Leu^27]cyclo[Glu^22-Lys^26]-hPTH-(1-31)-NH2 Ostabolin-C™ was administered daily by subcutaneous injection to gonad-intact cynomolgus monkeys (4/sex/group) at dose levels of 0, 2, 10 and 25 μg/kg for 52 weeks. Monkeys were 30 to 40 months of age (2.3-3.5 kg) at treatment start. Tibiae were retained for histomorphometry following labeling with calcein green 15 and 5 days prior to euthanasia. Bone mass, as measured by DXA (dual-energy x-ray absorptiometry) and QCT (quantitative computed tomography), was increased at the lumbar spine, femur and tibia. Changes in vertebral BMD (bone mineral density) translated into significant increases in bone strength. […] Tibial cancellous bone volume increased by more than 50% in all the peptide [Leu^27]cyclo[Glu^22-Lys^26]-hPTH-(1-31)-NH2 treated groups compared to controls and in the tibial mid-diaphysis, increases in cortical width and relative cortical area with concurrent decreases in medullary area were observed. […] Increases in indices of bone formation were associated with decreases in indices of bone resorption (decreased bone resorption markers, decreased osteoclast surface area, minimal cortical porosity), consistent with the uncoupling of these events. This combination of anabolic and anti-catabolic actions may have significant therapeutic value in the treatment of osteoporosis.
# Comparative data regarding increase in cortical bone porosity in monkey subjects using Ostabolin C at a variety of doses and using the prior art PTHs 1-34 is shown below.
# [4] = test system: rats; assay: Rat oncogenicity study, 104 weeks subcutaneous; format: in vivo; details: 0.5, 5, 30, and 50 μg/kg/day SC
# Procedure: Prior art PTHs cause osteosarcomas in animals if administered over a course of two years. The PTH peptides of the present invention, including Ostabolin-C™ and PTH 1-30, are administered subcutaneously to rats for 104 weeks at doses of 0.5, 5, 30, and 50 μg/kg/day. The test article is administered subcutaneously. […] This difference could be due to the different amino acids sequences and/or to the different signalling pathways activated by the PTH molecules.
compound,measurement,setting,value
"CC[C@H](C)[C@H](NC(=O)[C@H](CCC(=O)O)NC(=O)[C@H](CO)NC(=O)[C@@H](NC(=O)[C@@H](N)CO)C(C)C)C(=O)N[C@@H](CCC(N)=O)C(=O)N[C@@H](CC(C)C)C(=O)N[C@@H](CCSC)C(=O)N[C@@H](Cc1c[nH]cn1)C(=O)N[C@@H](CC(N)=O)C(=O)N[C@@H](CC(C)C)C(=O)NCC(=O)N[C@@H](CCCCN)C(=O)N[C@@H](Cc1c[nH]cn1)C(=O)N[C@@H](CC(C)C)C(=O)N[C@@H](CC(N)=O)C(=O)N[C@@H](CO)C(=O)N[C@@H](CCSC)C(=O)N[C@@H](CCC(=O)O)C(=O)N[C@@H](CCCNC(=N)N)C(=O)N[C@H](C(=O)N[C@H]1CCC(=O)NCCCC[C@@H](C(=O)N[C@@H](CC(C)C)C(=O)N[C@@H](CC(C)C)C(=O)N[C@@H](CCC(N)=O)C(=O)N[C@@H](CC(=O)O)C(=O)N[C@H](C(N)=O)C(C)C)NC(=O)[C@H](CCCNC(=N)N)NC(=O)[C@H](CC(C)C)NC(=O)[C@H](Cc2c[nH]c3ccccc23)NC1=O)C(C)C [Ostabolin-C, [Leu^27]cyclo[Glu^22-Lys^26]-PTH-(1-31)-NH2] (H-SVSEIQLMHNLGKHLNSMERVEWLRKLLQDV-NH2; lactam 22-26)",CTx,[1]; 59 kg cut,57.5
same,FN-BMD,[1]; 59 kg cut,1.5
same,LS-BMD 3%,[1]; 59 kg cut,80.8
same,LS-BMD 6%,[1]; 59 kg cut,28.8
same,P1NP,[1]; 59 kg cut,143.5
same,TH-BMD,[1]; 59 kg cut,0.69
same,Mean LS-BMD,"[1]; 59 kg cut (30 μg below, 45 μg above)",4.95
same,CTx,[1]; 68 kg cut,32.1
same,FN-BMD,[1]; 68 kg cut,0.29
same,LS-BMD 3%,[1]; 68 kg cut,78.0
same,LS-BMD 6%,[1]; 68 kg cut,29.3
same,P1NP,[1]; 68 kg cut,132.1
same,TH-BMD,[1]; 68 kg cut,0.40
same,Mean LS-BMD,"[1]; 68 kg cut (30 μg below, 45 μg above)",4.65
same,LS-BMD 3%,"[1]; 68 kg cutoff, modeled",76.5
same,Mean LS-BMD,"[1]; 68 kg cutoff, modeled",4.57
same,bone resorption stimulation as % of expected effect of 20 μg Forteo,[2]; 30 μg,approximately 50%
same,CTx,[2]; 30 μg (4 months),1400 pM/L
same,FN-BMD (%),[2]; 30 μg (4 months),−0.05%
same,LS-BMD (%),[2]; 30 μg (4 months),3.6%
same,"LS-BMD (%), subset with LS-BMD T score < −2.5",[2]; 30 μg (4 months),4.51%
same,P1NP,[2]; 30 μg (4 months),50.0 µg/L
same,TH-BMD (%),[2]; 30 μg (4 months),0.06%
same,CTx,"[2]; 30 ug, 4 months",30.6
same,FN-BMD,"[2]; 30 ug, 4 months",−0.06
same,LS-BMD 3%,"[2]; 30 ug, 4 months",59.6
same,LS-BMD 6%,"[2]; 30 ug, 4 months",19.1
same,Mean LS-BMD,"[2]; 30 ug, 4 months",3.72
same,P1NP,"[2]; 30 ug, 4 months",117.2
same,TH-BMD,"[2]; 30 ug, 4 months",0.07
same,BMD in the lumbar spine,[2]; 45 μg,increase in BMD
same,CTx,[2]; 45 μg (4 months),2900 pM/L
same,FN-BMD (%),[2]; 45 μg (4 months),2.75%
same,LS-BMD (%),[2]; 45 μg (4 months),5.2%
same,"LS-BMD (%), subset with LS-BMD T score < −2.5",[2]; 45 μg (4 months),5.9%
same,P1NP,[2]; 45 μg (4 months),79.5 µg/L
same,TH-BMD (%),[2]; 45 μg (4 months),1.45%
same,Mean % Change In Femoral Neck (BMD),[2]; 45 μg For 15 Weeks,2.75%
same,Mean % Change In Total Hip (BMD),[2]; 45 μg For 15 Weeks,1.44%
same,Mean % Change In Trochanter (BMD),[2]; 45 μg For 15 Weeks,2.24%
same,CTx,"[2]; 45 ug, 4 months",60.3
same,FN-BMD,"[2]; 45 ug, 4 months",3.0
same,LS-BMD 3%,"[2]; 45 ug, 4 months",79.5
same,LS-BMD 6%,"[2]; 45 ug, 4 months",36.4
same,Mean LS-BMD,"[2]; 45 ug, 4 months",5.59
same,P1NP,"[2]; 45 ug, 4 months",160.5
same,TH-BMD,"[2]; 45 ug, 4 months",1.6
same,cortical BMD in distal and mid-shaft radius compared to placebo and Forteo,"[2]; 7.5, 15, and 30 μg",increases cortical BMD
same,lumbar spine BMD,"[2]; 7.5, 15, and 30 μg daily, 15 weeks",increase in lumbar spine BMD
same,"hip, femoral neck, and trochanter BMD","[2]; low doses, 15 weeks",mild BMD increase
same,"Bone mass (DXA, QCT) at lumbar spine, femur and tibia","[3]; 2, 10, 25 μg/kg SC daily, 52 weeks",increased
same,osteoclast surface,[3]; 52 weeks,significant reduction
same,Tibial cancellous bone volume increase compared to controls,"[3]; all treated groups (2, 10, 25 μg/kg SC daily, 52 weeks)",more than 50%
"PTH(1-30) (SVSEIQLMHNLGKHLNSMERVEWLRKKLQD; Parathyroid hormone; UniProt P01270 32-61, looked up, fragment) [PTH 1-30]",incidence of osteosarcomas compared to prior art PTH peptides,[4],lower incidences of osteosarcomas
